Tests used:
mural granulosa cells = experiment: Mural granulosa cell DNA synthesis, 3H-thymidine incorporation; type: cell-based, marmoset monkey, Callithrix jacchus; conditions: GC from large antral follicles
Protocol: Mural GC from large antral follicles were cultured for 24h and thymidine incorporation was stimulated with 175 ng/ml GDF9. […] Bars/points represent means+/−SEM from 3 replicate experiments expressed as a fold change relative to control.
Follicles were manually excised and separated into 3 size classes: periantral (PA; 0.42-0.66 mm), small antral (SA; 0.66-1.5 mm) and large antral (LA; >1.5 mm). GCs from each follicle size were collected and pooled, then washed twice in bicarbonate-buffered tissue culture medium-199 (B-TCM) supplemented with 0.3 mg/ml of polyvinyl alcohol (PVA, Sigma). Depending on the individual experiments, mural GCs (1×10^5 cells/ml), hormones, inhibitors and media were added to wells of 96-well plates (Falcon) to give a final volume of 125 μl. Within each experiment, all treatments were carried out in at least duplicate wells and each experiment was replicated on at least 3 occasions. Cells were cultured in an atmosphere of 37° C., 96% humidity in 5% CO2 in air for 18 hours, followed by a further 6 hour pulse of 15.4 kBq tritiated thymidine (3H-thymidine, ICN) under the same conditions.
Seven adult female marmosets were primed with […] for 6 days, whole ovaries were removed on day 7, follicles manually excised, and GC were then collected from 3 size classes: periantral (PA; 0.42-0.66 mm), small antral (SA; 0.66-1.5 mm) and large antral (LA; >1.5 mm). Four different approaches were utilized to examine GDF9 function in GC. […] To examine the GDF9 signalling pathway, cultured GC from LA follicles were transfected with either a CAGA-luciferase or BRE-luciferase reporter construct and treated with various TGF-β superfamily growth factors or co-cultured with mouse oocytes. In order to determine the effects of GDF9 on marmoset GC proliferation, we employed a GC bioassay whereby after 24 h ^3H-thymidine incorporation is assessed as an indicator of DNA synthesis and cellular proliferation. […] In another experiment, GC were treated with an increasing dose of SB431542, an activin-like kinase (ALK) 4/5/7 inhibitor, in the presence of GDF9+/−IGF1.

cumulus-oocyte complexes = experiment: Study IV: oocyte developmental competence after IVM, IVF and embryo culture; type: cell-based, Bovine
Protocol: Unless otherwise specified, all chemicals and reagents were purchased from Sigma (St Louis, Mo.). Bovine ovaries were collected from local abattoirs and transported to the laboratory in warm saline (30-35° C.). COCs were aspirated from antral follicles (3 to 5 mm diameter) using an 18-gauge needle and a 10-ml syringe containing ˜2 ml aspiration medium (Hepes-buffered. Tissue Cultured Medium-199; TCM-199. ICN Biochemicals, Irvine, Calif., USA) supplemented with 50 μg/ml kanamycin, 0.5 mM sodium pyruvate, 50 μg/ml heparin and 4 mg/ml fatty acid-free bovine serum albumin (FAF-BSA; ICPbio Ltd, Aukland, NZ). Intact COCs with compact cumulus vestments>˜5 cell layers and evenly pigmented cytoplasm were selected under a dissecting microscope and washed twice in Hepes-buffered TCM-199 and once in Hepes-buffered TCM-199 supplemented with 10% fetal calf serim (FCS) (Invitrogen, Carlsbad, Calif.). The basic medium for oocyte maturation was Bovine VitroMat (Cook Australia, Eight Mile Plains, Qld, Australia), a medium based on the ionic composition of bovine follicular fluid. […] Complexes were cultured in pre-equilibrated 300 ? l drops overlaid with mineral oil and incubated at 39° C. with 5% CO2 in humidified air for 24 hour. […]
Recombinant mouse GDF9 and recombinant ovine BMP15 were produced and partially purified in-house as previously described using transfected 293 human embryonic kidney cell lines (293H) originally donated by O. Ritvos (University of Helsinki). Control conditioned medium (hereafter designated ‘293H’) was produced from untransfected 293H cells and subjected to the same chromatography procedures as GDF9 and BMP15 conditioned media.
Consequently, SB-431542 potently antagonizes the ALK 4/5 ligands; TGF-β1, the activins and GDF9, without affecting BMP signalling (Inman et al., 2002; Gilchrist et al., 2006). […] Follistatin-288 was generously donated by S. Shimasaki (University of California San Diego, USA) and we have previously shown that this binding protein antagonizes the bioactivities of native OSFs and recombinant BMP15 in CCs.
In vitro production of embryos was undertaken using defined, serum-free media (Bovine Vitro series of media, Cook Australia). Frozen semen from a single bull of proven fertility was used in all experiments. Briefly, thawed semen was layered over a discontinuous (45%: 90%) Percoll gradient (Amersham Bioscience) and centrifuged (RT) for 20-25 mins at 700 g. The supernatant was removed and the sperm pellet was washed with 500 μl Bovine VitroWash (Cook Australia) and centrifuged for a further 5 minutes at 200 g. Spermatozoa were resuspended with IVF medium (Bovine VitroFert, Cook Australia), then added to the fertilization media drops (Bovine VitroFert, supplemented with 0.01 mM heparin, 0.2 mM penicillamine and 0.1 mM hypotaurine) at a final concentration of 1×106 spermatozoa/ml. COCs were inseminated at a density of 10 μl of IVF medium per COC for 24 h, at 39° C. in 6% CO2 in humidified air.
CCs were removed by gentle pipetting 23-24 h post insemination and five presumptive zygotes were transferred into 20 μl drops of pre-equilibrated Cook Bovine VitroCleave medium (Cook Australia) and cultured under mineral oil at 38.5° C. in 7% O2, 6% CO2, balance N2, for five days (day 1 to day 5).
On Day 5, embryos were transferred in groups of 5-6 to 20 μl drops of pre-equilibrated Bovine VitroBlast (Cook Australia) at 38.5° C. overlaid with mineral oil and cultured to Day 8. Embryos were assessed for quality at Day 8 according to the definitions presented in the Manual of the International Embryo Transfer Society (Stringfellow, 1998) and were performed independently and blinded by an experienced bovine embryologist.
Cell counts were performed using a modified version of the technique described by (Fouladi-Nashta et al., 2005). […]

[1] = test system: activin receptor-like kinases (ALKs) 4, 5 and 7; conditions: competitive ATP binding site kinase inhibitor; without effecting ALKs 1, 2, 3 or 6 or other cellular kinases; cited from earlier work

SMILES: NC(=O)c1ccc(-c2nc(-c3ccc4c(c3)OCO4)c(-c3ccccn3)[nH]2)cc1 [SB-431542, reference compound]
- DNA synthesis stimulated by GDF9 in the presence of inhibitor (mural granulosa cells; 175 ng/ml GDF9, 24 h): dose-dependently inhibited
- stimulatory effects of GDF9 on DNA synthesis at 1 μM inhibitor (mural granulosa cells; 1 μM): completely eliminate
- blastocyst development of control COCs treated with antagonist (cumulus-oocyte complexes; 4 μM SB-431542 or 10 μg/ml follistatin-288, compared to untreated COCs): significantly (P<0.05) decreased
- effect on cleavage rate (cumulus-oocyte complexes; Experiments 3 & 4, 4 μM SB-431542, 175 ng/ml GDF9, 10% v/v BMP15, 10% v/v 293H): no influence
- increase of blastocyst yields by GDF9 or BMP15 on addition of the respective antagonist (cumulus-oocyte complexes; SB-431542 against GDF9, follistatin against BMP15): ablated
- kinase selectivity [1]: specifically antagonizing the activities of activin receptor-like kinases (ALKs) 4, 5 and 7
